Results reported in patent US7763580B2, “Methods for treating conditions associated with the accumulation of excess extracellular matrix” (University of Utah Research Foundation, priority 1999, dated 2010).

Legend:
[1] = test system: anti-Thy 1 glomerulonephritis; experiment: Glomerular p-Smad2 (Western blot); format: in vivo, Sprague Dawley rats; conditions: enalapril alone
Procedure: These experiments were performed on male Sprague Dawley rats (200-250 g) obtained from the Sasco colony of Charles River Laboratories (Wilmington, Mass., USA). Animal housing and care were in accordance with the NIH Guide for the Care and Use of Laboratory Animals, NIH Publication No. 85-23, 1985. Animals were fed a normal protein diet (22% protein, Teklad No. 86 550, Teklad Premier Laboratory Diets, Madison, Wis., USA). Glomerulonephritis was induced by tail vein injection of 2.25 mg/Kg of the monoclonal anti-Thy 1.1 antibody OX-7 (NCCC, Biovest International Inc, Minneapolis, Minn., USA). OX-7 binds to a Thy 1-like epitope on the surface of mesangial cells causing complement-dependent cell lysis followed by fibrotic tissue repair (Bagchus et al., Lab Invest. 55:680-687 (1986)). Control animals were injected with similar volumes of phosphate-buffered saline (PBS). Groups of 8 rats were assigned and treated as outlined in Table 2. […] Bound antibodies were detected by developing the blot in ECL™ Western blotting detection reagents (Amersham Pharmacia Biotech) for 1 min. Quantitation of the bands on autoradiograms was performed using a BIO-RAD GS-700 imaging densitometer. Changes in p-Smad2 levels were determined by correcting for the densitometric intensity of β-actin for each sample. […] The percent reduction in disease severity in a treated group was calculated as: […]

[2] = test system: anti-Thy 1 glomerulonephritis; experiment: Glomerular mRNA expression (Northern hybridization); format: in vivo, Sprague Dawley rats; conditions: enalapril alone
Procedure: These experiments were performed on male Sprague Dawley rats (200-250 g) obtained from the Sasco colony of Charles River Laboratories (Wilmington, Mass., USA). Animal housing and care were in accordance with the NIH Guide for the Care and Use of Laboratory Animals, NIH Publication No. 85-23, 1985. Animals were fed a normal protein diet (22% protein, Teklad No. 86 550, Teklad Premier Laboratory Diets, Madison, Wis., USA). Glomerulonephritis was induced by tail vein injection of 2.25 mg/Kg of the monoclonal anti-Thy 1.1 antibody OX-7 (NCCC, Biovest International Inc, Minneapolis, Minn., USA). OX-7 binds to a Thy 1-like epitope on the surface of mesangial cells causing complement-dependent cell lysis followed by fibrotic tissue repair (Bagchus et al., Lab Invest. 55:680-687 (1986)). Control animals were injected with similar volumes of phosphate-buffered saline (PBS). Groups of 8 rats were assigned and treated as outlined in Table 2. […] Changes in mRNA levels were determined by first correcting for the densitometric intensity of 18S for each sample. For comparison, this ratio was set at unity for normal control samples and other lanes on the same gel were expressed as fold increases over this value. […] The percent reduction in disease severity in a treated group was calculated as:

## CCOC(=O)[C@H](CCc1ccccc1)N[C@@H](C)C(=O)N1CCC[C@H]1C(=O)O [enalapril]
[1]
  reduction of Smad2 activation (p-Smad2): 36%
[2]
  reduction of TGF-β1 mRNA: 29%
